Activity calls are given as the source filed them. The calls are words filed in the database; no cut-off is given here.
What was measured:
[1] = Cytotoxicity against human HEI-193 cells harboring NF2 mutant assessed as growth inhibition after 72 hrs by MTT assay; type: functional, cell-based; details: HEI-193, 72 h
[2] = Downregulation of Hsp27 expression in human keratinocytes at 10 uM; type: functional, cell-based; details: Keratinocyte
HEI-193 = assay: Binding affinity to Hsp70 in human HEI-193 cells harboring NF2 mutant at 100 uM after 30 mins by SDS-PAGE analysis; type: cell-based
[3] = biological target: T1, D-3-phosphoglycerate dehydrogenase (Homo sapiens) (UniProt O43175); assay: Binding affinity to 3-PGDH in human HEI-193 cells harboring NF2 mutant at 100 uM after 30 mins by SDS-PAGE analysis; type: cell-based
T1 sequence (whole entry): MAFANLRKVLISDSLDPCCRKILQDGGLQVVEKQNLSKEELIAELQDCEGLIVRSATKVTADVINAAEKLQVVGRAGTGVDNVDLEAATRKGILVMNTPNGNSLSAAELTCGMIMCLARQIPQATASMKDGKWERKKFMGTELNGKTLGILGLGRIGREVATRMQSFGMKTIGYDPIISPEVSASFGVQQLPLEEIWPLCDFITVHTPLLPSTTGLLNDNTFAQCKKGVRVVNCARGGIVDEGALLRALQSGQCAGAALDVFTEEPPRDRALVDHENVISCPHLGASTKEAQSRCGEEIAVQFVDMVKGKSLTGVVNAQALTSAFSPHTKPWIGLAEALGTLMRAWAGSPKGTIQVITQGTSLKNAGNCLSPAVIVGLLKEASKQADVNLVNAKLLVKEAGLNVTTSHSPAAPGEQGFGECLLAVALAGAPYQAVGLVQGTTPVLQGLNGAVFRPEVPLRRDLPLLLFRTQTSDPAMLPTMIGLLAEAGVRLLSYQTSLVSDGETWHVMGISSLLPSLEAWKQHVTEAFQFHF

[4] = biological target: Actin, cytoplasmic 1 (Homo sapiens) (UniProt P60709); assay: Binding affinity to beta-actin in human HEI-193 cells harboring NF2 mutant at 100 uM after 30 mins by SDS-PAGE analysis; type: cell-based
[5] = biological target: Heat shock protein HSP90 (Homo sapiens) (UniProt P07900+P08238); assay: Binding affinity to Hsp90 in human HEI-193 cells harboring NF2 mutant at 100 uM after 30 mins by SDS-PAGE analysis; type: cell-based

| Activity [3] | Activity [4] | Activity [5] | Compound | IC50 [1] [µM] | Activity [2] [%] | Activity (HEI-193) |
| --- | --- | --- | --- | --- | --- | --- |
| – | – | – | COc1cc(/C=C/C(=O)CC(=O)/C=C/c2ccc(O)c(OC)c2)ccc1O [CURCUMIN] | 18 | 34 | – |
| Active | Active | Active | COc1cc(/C=C/C(=O)CC(=O)/C=C/c2ccc(OC(=O)CCCC(=O)NCCCOCCOCCOCCCNC(=O)CCCC[C@@H]3SC[C@@H]4NC(=O)N[C@@H]43)c(OC)c2)ccc1O | 36 | – | Active |

From ChEMBL document CHEMBL2311428, “Binding partners for curcumin in human schwannoma cells: biologic implications” (Bioorg Med Chem, 2013)
